Measured values: patent US20260069578A1, “TREATMENT OF NEUTROPHILIC DERMATOSES” (UNION THERAPEUTICS A/S, priority 2022, published 2026)
In brackets after ≈: the same amount, converted by molar mass.

What was measured:
[1] = test system: conscious, unrestrained ferret; assay: Emesis study in ferrets; details: oral, 1, 3, 10 and 30 mg/kg
LPS-induced TNF-α = LPS-induced TNF-α in ferrets after single oral administration; details: LPS 3 mg/kg ip
[2] = test system: TNF-α secretion from human whole blood; assay: Whole blood TNF-α secretion assay (LPS or SEB stimulated); assay type: cell-based; details: 24 h, SEB 1 μg/mL, donor 2
resistant vegetative PG = details: one case, concomitantly with oral prednisone; cited from earlier work
[3] = biological target: purified human recombinant PDE4D protein (Homo sapiens, UniProt Q08499); assay: PDE4D scintillation proximity assay (SPA); assay type: biochemical
Sequence of purified human recombinant PDE4D protein (Q08499 whole entry): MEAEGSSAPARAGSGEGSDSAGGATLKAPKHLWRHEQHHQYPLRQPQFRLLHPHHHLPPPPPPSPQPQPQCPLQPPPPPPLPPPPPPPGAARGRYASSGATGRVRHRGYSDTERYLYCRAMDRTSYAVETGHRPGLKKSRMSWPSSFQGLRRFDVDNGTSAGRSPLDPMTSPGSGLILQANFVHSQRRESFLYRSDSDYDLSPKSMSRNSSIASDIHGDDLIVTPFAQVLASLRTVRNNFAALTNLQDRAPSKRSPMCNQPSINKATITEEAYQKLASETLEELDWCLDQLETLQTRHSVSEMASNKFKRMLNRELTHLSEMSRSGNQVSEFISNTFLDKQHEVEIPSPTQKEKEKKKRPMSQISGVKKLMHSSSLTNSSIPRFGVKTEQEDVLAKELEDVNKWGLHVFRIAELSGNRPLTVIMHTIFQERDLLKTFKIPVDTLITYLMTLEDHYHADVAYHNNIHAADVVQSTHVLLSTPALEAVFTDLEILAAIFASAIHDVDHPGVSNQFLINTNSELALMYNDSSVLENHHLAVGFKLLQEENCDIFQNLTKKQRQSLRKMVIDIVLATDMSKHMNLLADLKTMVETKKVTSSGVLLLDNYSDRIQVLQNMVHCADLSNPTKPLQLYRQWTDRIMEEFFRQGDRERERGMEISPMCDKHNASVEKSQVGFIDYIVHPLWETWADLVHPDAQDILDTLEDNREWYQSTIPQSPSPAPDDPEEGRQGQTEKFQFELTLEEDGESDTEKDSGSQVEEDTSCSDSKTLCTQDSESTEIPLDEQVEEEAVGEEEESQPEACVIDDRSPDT
Procedure: PDE4 enzymatic activity was measured in a scintillation proximity assay using purified human recombinant PDE4D protein.

PDE4A4 = PDE4A4 (Homo sapiens, UniProt P27815); assay type: biochemical
Sequence of PDE4A4 (P27815 whole entry): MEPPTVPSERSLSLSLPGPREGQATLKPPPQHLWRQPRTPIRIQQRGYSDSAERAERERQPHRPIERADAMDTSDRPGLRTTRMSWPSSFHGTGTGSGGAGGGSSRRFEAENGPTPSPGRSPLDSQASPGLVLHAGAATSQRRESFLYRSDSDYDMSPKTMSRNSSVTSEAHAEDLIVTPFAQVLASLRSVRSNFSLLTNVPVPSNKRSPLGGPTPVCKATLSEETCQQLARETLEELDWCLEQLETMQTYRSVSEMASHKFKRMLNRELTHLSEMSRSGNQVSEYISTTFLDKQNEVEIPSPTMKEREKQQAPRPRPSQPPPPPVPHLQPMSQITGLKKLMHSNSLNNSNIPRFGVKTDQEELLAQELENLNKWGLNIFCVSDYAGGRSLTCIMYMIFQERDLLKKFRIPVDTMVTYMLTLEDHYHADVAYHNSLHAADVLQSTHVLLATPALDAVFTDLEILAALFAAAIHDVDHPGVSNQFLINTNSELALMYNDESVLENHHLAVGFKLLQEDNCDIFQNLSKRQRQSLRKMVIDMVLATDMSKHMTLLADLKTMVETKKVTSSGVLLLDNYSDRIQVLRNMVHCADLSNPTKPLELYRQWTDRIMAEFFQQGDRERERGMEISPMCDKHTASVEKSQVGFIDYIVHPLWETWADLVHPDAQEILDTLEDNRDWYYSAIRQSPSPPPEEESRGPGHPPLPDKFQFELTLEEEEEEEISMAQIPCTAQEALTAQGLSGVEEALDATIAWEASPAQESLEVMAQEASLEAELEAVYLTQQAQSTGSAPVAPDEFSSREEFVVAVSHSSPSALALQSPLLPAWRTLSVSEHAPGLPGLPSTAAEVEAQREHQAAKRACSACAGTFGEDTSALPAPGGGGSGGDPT

PDE4A10 = PDE4A10 (Homo sapiens, UniProt P27815); assay type: biochemical
PDE4B1 = PDE4B1 (Homo sapiens, UniProt Q07343); assay type: biochemical
Procedure: (§1) Enzyme Preparations: Partially purified human recombinant phosphodiesterases (PDEs) were obtained by cloning cDNA and expressing in S. frugiperda insect cells using a baculovirus expression system. Cells are harvested from culture by centrifuging at 400×g for 5 minutes. Cell pellet is resuspended in 20 ml of RIPA Buffer (150 mM NaCl, 10 mM Tris, 0.1% NP-40, pH8.3), 4 ml/200 ml of culture, plus protease inhibitors (100 μl/10 ml) and incubated on ice for 10-20 minutes then spun at 3500×g for 10 minutes at 4° C. Supernatant is kept and the pellet thrown away.
(§2) Tritium-labelled cyclic AMP is hydrolysed to 5′-AMP o by PDE. The 5′-AMP is then further hydrolysed to adenosine by nucleotidase in snake venom. An anion-exchange resin binds all charged nucleotides and leaves [^3H]adenosine as the only labelled compound to be counted by liquid scintillation.
(§3) 50 μl of diluted PDE enzyme was incubated with 50 μl of [^3H]-cAMP (specific activity 25 Ci/mmol) and 11 μl of 50% DMSO (or compound dilution) for 20 minutes at 30° C. The enzyme was diluted in 20 mM Tris HCl pH7.4 (×2.2 final concentration) and [3H]-cAMP was diluted in 10 mM MgCl2, 40 mM Tris HCl pH 7.4 (×2.2 final concentration). Reactions were carried out in Greiner 96 deep well 1 ml master-block. The plates were centrifuged for 9 seconds before the 20 minutes incubation. […] After incubation 200 μl Dowex resin (1×8, 200-400 mesh) was added and the plate shaken for 20 minutes then centrifuged for 3 minutes at 1000×g. 5 μl of supernatant was removed and added to 200 μl of MicroScint-20 in white plates (Greiner 96 well Optiplate) and shaken for 30 minutes before reading on Perkin Elmer TopCount Scintillation Counter. […] values were calculated using GraphPad Prism software (version 8).

PDE4B2 = PDE4B2 (Homo sapiens, UniProt Q07343); assay type: biochemical
Procedure: as §1, §2, §3

PDE4B3 = PDE4B3 (Homo sapiens, UniProt Q07343); assay type: biochemical
Procedure: as §1, §2, §3

PDE4D1 = PDE4D1 (Homo sapiens, UniProt Q08499); assay type: biochemical
Sequence of PDE4D1 (Q08499 1-584 isoform Q08499-4): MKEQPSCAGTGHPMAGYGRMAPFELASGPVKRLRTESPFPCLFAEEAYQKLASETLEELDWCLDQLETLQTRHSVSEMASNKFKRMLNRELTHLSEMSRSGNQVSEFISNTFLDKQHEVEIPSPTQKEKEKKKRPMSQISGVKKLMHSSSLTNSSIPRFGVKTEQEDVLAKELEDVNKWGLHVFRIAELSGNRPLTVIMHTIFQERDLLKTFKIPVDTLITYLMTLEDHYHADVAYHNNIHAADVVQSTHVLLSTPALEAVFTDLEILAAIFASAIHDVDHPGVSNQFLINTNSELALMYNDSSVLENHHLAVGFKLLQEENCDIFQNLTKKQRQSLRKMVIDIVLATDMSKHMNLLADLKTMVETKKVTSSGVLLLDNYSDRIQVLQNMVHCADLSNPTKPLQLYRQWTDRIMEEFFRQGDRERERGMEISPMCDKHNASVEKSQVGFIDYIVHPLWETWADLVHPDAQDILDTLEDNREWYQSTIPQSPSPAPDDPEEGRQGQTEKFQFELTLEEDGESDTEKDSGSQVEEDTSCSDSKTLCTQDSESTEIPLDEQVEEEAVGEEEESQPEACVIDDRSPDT
Procedure: as §1, §2, §3

PDE4D2 = PDE4D2 (Homo sapiens, UniProt Q08499); assay type: biochemical; details: value generated by extrapolation of data
Sequence of PDE4D2 (Q08499 303-809): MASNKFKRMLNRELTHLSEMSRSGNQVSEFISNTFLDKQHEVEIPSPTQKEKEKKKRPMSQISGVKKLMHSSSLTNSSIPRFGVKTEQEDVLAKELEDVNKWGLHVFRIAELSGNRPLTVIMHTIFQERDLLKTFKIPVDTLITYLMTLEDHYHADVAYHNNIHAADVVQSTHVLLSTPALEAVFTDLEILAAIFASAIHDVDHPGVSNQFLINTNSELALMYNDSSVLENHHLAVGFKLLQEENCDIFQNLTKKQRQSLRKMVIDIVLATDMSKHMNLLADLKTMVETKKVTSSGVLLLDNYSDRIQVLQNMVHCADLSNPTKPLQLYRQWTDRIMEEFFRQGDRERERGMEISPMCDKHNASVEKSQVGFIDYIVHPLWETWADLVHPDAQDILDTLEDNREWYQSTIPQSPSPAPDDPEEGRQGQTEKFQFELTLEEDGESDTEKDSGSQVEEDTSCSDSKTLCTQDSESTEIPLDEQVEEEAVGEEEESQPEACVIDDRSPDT
Procedure: as §1, §2, §3

PDE4D3 = PDE4D3 (Homo sapiens, UniProt Q08499); assay type: biochemical; details: value generated by extrapolation of data
Sequence of PDE4D3 (Q08499 1-673 isoform Q08499-2): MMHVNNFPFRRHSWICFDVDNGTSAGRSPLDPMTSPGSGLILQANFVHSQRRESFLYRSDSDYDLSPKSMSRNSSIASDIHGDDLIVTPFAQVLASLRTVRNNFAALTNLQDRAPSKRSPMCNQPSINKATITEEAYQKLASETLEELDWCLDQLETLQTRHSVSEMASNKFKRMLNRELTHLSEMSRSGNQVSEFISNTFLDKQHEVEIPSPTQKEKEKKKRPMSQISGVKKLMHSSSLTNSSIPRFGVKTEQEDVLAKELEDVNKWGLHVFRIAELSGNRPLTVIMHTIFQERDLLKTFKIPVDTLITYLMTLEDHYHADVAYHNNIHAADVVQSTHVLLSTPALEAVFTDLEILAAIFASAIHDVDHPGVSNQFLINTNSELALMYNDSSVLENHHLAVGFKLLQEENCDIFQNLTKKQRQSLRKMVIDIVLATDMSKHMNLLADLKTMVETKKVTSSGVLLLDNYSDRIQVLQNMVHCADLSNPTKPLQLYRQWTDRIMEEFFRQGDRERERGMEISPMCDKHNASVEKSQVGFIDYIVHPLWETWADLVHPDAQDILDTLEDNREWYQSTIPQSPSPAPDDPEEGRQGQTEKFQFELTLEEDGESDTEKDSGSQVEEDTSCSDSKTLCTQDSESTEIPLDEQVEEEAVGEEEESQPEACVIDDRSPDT
Procedure: as §1, §2, §3

PDE4D5 = PDE4D5 (Homo sapiens, UniProt Q08499); assay type: biochemical
Sequence of PDE4D5 (Q08499 1-745 isoform Q08499-6): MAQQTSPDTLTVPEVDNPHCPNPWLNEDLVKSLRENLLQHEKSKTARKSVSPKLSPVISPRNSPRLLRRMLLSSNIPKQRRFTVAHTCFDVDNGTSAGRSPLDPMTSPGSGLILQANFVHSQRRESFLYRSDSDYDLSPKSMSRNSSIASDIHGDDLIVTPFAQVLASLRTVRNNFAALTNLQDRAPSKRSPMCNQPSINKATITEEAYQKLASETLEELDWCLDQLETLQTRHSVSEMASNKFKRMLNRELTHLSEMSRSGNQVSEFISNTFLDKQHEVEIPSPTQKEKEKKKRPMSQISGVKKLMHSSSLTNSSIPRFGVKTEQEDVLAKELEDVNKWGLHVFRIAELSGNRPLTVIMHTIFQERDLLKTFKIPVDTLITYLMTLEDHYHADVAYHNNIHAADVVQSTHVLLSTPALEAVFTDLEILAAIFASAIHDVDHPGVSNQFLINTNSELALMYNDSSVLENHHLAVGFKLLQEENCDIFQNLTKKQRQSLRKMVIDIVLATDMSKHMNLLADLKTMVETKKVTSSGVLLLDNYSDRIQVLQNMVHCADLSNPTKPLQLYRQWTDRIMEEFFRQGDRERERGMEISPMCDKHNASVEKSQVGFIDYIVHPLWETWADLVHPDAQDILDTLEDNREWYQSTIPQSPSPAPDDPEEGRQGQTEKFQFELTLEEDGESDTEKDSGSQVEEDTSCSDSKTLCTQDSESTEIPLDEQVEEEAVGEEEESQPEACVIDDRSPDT
Procedure: as §1, §2, §3

PDE4D7 = PDE4D7 (Homo sapiens, UniProt Q08499); assay type: biochemical
Sequence of PDE4D7 (Q08499 1-748 isoform Q08499-11): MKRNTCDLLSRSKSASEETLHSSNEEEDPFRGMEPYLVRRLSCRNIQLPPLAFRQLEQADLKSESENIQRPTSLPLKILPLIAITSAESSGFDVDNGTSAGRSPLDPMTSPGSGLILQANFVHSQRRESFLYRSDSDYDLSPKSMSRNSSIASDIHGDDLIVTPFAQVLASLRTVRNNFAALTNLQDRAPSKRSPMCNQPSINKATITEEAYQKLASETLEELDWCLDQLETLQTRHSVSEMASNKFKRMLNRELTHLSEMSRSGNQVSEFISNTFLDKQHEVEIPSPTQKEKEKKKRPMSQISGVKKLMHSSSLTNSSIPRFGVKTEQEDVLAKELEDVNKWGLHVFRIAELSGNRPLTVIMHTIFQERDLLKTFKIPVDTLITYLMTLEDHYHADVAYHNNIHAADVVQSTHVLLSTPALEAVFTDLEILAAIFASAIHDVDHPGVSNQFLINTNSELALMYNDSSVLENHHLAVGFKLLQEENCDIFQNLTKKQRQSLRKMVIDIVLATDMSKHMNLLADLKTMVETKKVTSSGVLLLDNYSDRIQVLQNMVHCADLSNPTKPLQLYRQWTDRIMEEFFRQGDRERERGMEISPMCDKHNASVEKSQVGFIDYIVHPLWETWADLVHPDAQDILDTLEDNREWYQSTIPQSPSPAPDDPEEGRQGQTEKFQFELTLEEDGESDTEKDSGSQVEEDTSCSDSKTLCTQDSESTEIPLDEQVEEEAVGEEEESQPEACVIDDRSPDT
Procedure: as §1, §2, §3

[4] = test system: pyoderma gangrenosum with concomitant HS / PASH syndrome; assay: Clinical study in two patients; assay type: in vivo, human
Procedure: The efficacy of the peroral anti-inflammatory PDE4-inhibitor Orismilast was investigated in two patients, one with pyoderma gangrenosum and concomitant HS, the other with PASH syndrome. Patients received a titrated dose of Orismilast of up to 40 mg twice daily for 16 weeks.

PDE4A1 = PDE4A1 (Homo sapiens, UniProt P27815)
[5] = Case 1, PASH syndrome, 20 mg twice daily
[6] = Case 2, PG and HS, 30 plus 40 mg daily

O=C(Nc1c(Cl)cncc1Cl)c1ccc(OC(F)F)c(OCC2CC2)c1 [Roflumilast, reference compound]
Health status or body weight gain [1]: did not influence | Increase of TNF-α levels observed at 1 hour after LPS (LPS-induced TNF-α; oral, 1 and 3 mg/kg): attenuated

C[C@@H]1CCN(C(=O)CC#N)C[C@@H]1N(C)c1ncnc2[nH]ccc12 [Tofacitinib]
Emax [2]: 100%

CCOc1cc([C@@H](CS(C)(=O)=O)N2C(=O)c3cccc(NC(C)=O)c3C2=O)ccc1OC [Apremilast]
Lesion healing (resistant vegetative PG): Complete healing of one lesion and partial healing of another

O=C(Cc1c(Cl)c[n+]([O-])cc1Cl)c1ccc(OC(F)F)c2c1OC1(CCS(=O)(=O)CC1)O2 [Compound (I), 2-(3,5-Dichloro-1-oxido-pyridine-4-yl)-1-(7-difluoro-methoxy-2′,3′,5′,6′-tetrahydro-spiro[1,3-benzodioxole-2, 4′-(4H)-thiopyran-1′,1′-dioxide]-4-yl)ethanone]
EC50 values, PDE4D SPA [3]: 7.5 ng/mL (≈ 0.0147 µM) | IC50 (PDE4A4): 11.3 nM | IC50 (PDE4A10): 52.3 nM | IC50 (PDE4B1): 15.7 nM | IC50 (PDE4B2): 5.6 nM | IC50 (PDE4B3): 2.94 nM | IC50 (PDE4D1): 8.67 nM | IC50 (PDE4D2): 2.03 nM | IC50 (PDE4D3): 1.75 nM | IC50 (PDE4D5): 2.18 nM | IC50 (PDE4D7): 2.94 nM | HS lesions [4, 5]: gradually improved | pyoderma wounds [4, 5]: slowly recovered | HS lesions [4, 6]: remained calm | pyoderma wounds [4, 6]: completely healed | IC50 (PDE4A1): 16.4 nM | Health status or body weight gain [1]: not to influence | Increase of TNF-α levels observed at 1 hour after LPS (LPS-induced TNF-α; oral, 1, 3 and 10 mg/kg): attenuated
